{
  "source": "ChEMBL document CHEMBL1127361",
  "about": "“Polyacrylamides bearing pendant alpha-sialoside groups strongly inhibit agglutination of erythrocytes by influenza A virus: multivalency and steric stabilization of particulate biological systems” (J Med Chem, 1994)",
  "note": "Numbered stars: 1 amine (or outer) side, 2 acyl side, 3 side chain; on linkers, the order of the positions; unused ones are H or OH. Square brackets hold non-standard residues; d marks the D form. Peptide text beside a SMILES is read from it. * marks the point of attachment. X1 = O=C(O)C1(OCCCCC(=O)[*:2])CC(O)C(N[*:1])C([C@@H](O)[C@H](O)CO)O1; NH(1-naphthylmethyl) = c1ccc2c(CN*)cccc2c1",
  "data": [
    {"assay": "Tested for inhibition of hemagglutinination in chicken red blood cell (RBC)", "assay_type": "functional, Gallus gallus", "units": {"Ki": "µM"}, "values": [
      {"smiles": "C=CC(=O)NOCCCOCCCCOC1(C(N)=O)CC(O)C(NC(C)=O)C([C@@H](O)[C@H](O)CO)O1", "note": "(some centres undefined)", "Ki": "> 600"},
      {"smiles": "COC(=O)C1(OC)CC(O)C(NC(C)=O)C([C@@H](O)[C@H](O)CO)O1", "note": "(some centres undefined)", "Ki": 14000},
      {"smiles": "C=CC(=O)NCCCOCCCCOC1(C(=O)O)CC(O)C(NC(C)=O)C([C@@H](O)[C@H](O)CO)O1", "note": "(some centres undefined)", "Ki": 1000},
      {"smiles": "CC(=O)NC1C(OC(=O)CNS(=O)(=O)c2cccc3c(N(C)C)cccc23)CC(OCCCCCCC(=O)NCc2cccc3ccccc23)(C(=O)O)OC1[C@@H](O)[C@H](O)CO", "note": "(some centres undefined)", "Ki": 3},
      {"smiles": "COC1(C(=O)O)CC(O)C(NC(C)=O)C([C@@H](O)C(O)O)O1", "note": "(some centres undefined)", "Ki": 2500},
      {"smiles": "C=CC(=O)NOCCCOCCCCOC1(C(C)=O)CC(O)C(NC(C)=O)C([C@@H](O)[C@H](O)CO)O1", "note": "(some centres undefined)", "Ki": "> 600"},
      {"smiles": "C=CC(=O)NOCCCOCCCCOC1(C(=O)O)CC(O)C(NC(C)=O)C([C@@H](O)[C@H](O)CO)O1", "note": "(some centres undefined)", "Ki": 0.3},
      {"smiles": "COC1(C(=O)O)CC(O)C(NC(C)=O)C([C@@H](O)[C@H](O)CO)O1", "note": "(some centres undefined)", "Ki": 2500},
      {"smiles": "CC(=O)NC1C(O)CC(OCCCCC(=O)NCC(=O)NCC(=O)NCC(=O)NCC(=O)NCc2cccc3ccccc23)(C(=O)O)OC1[C@@H](O)[C@H](O)CO", "note": "(some centres undefined) (Ac-[X1]GGGG-{NH(1-naphthylmethyl)})", "Ki": 30}
    ]}
  ]
}
